Experimental data from ChEMBL document CHEMBL4834425, “Spirombandakamine A3 and Cyclombandakamines A8 and A9, Polycyclic Naphthylisoquinoline Dimers, with Antiprotozoal Activity, from a Congolese Ancistrocladus Plant” (J Nat Prod, 2021).

What was measured:
Leishmania donovani = assay: Antileishmanial activity against Leishmania donovani MHOM/ET/67/L82 amastigotes assessed as inhibition of parasite growth measured after 72 hrs by alamar blue dye based fluorometric analysis; format: functional, organism-based; settings: MHOM/ET/67/L82, 72 h
[1] = test system: Trypanosoma brucei rhodesiense; assay: Antitrypanosomal activity against bloodstream form of Trypanosoma brucei rhodesiense STIB900 assessed as inhibition of parasite growth incubated for 72 hrs by Alamar blue dye-based fluorometric analysis; format: functional, organism-based; settings: STIB900, 72 h
Plasmodium falciparum = assay: Antiplasmodial activity against Plasmodium falciparum NF54 erythrocytic stages assessed as inhibition of parasite growth after 48 hrs by liquid scintillation counting method; format: functional, organism-based; settings: NF54, 48 h
[2] = Selectivity index, ratio of IC50 for cytotoxicity against rat L6 cells to IC50 for antiplasmodial activity against Plasmodium falciparum NF54; format: toxicity, cell-based; settings: read-out: Ratio IC50
L6 = assay: Cytotoxicity against rat L6 cells measured after 72 hrs by alamar blue dye based fluorometric analysis; format: cell-based; settings: L6, 72 h
Trypanosoma cruzi = assay: Antitrypanosomal activity against amastigote form of Trypanosoma cruzi Tulahuen C4 expressing LacZ infected in rat L6 cells assessed as inhibition of parasite growth incubated for 96 hrs by CPRG/Nonidet reagent based […] analysis; format: functional, organism-based; settings: Tulahuen C4, L6, 96 h

SMILES | IC50 (Leishmania donovani) | IC50 [1] | IC50 (Plasmodium falciparum) | selectivity ratio [2] | IC50 (L6) | IC50 (Trypanosoma cruzi)
COc1ccc2c3c1C(=O)C[C@]1(C)Oc4c(cc(-c5c(O)cc(OC)c6c5C[C@H](C)N(C)[C@@H]6C)c5cc(C)cc(OC)c45)[C@]31Oc1cc(OC)c3c(c1-2)C[C@@H](C)N[C@@H]3C | 54.2 µM | 0.738 µM | 0.059 µM | 282 | 16.8 µM | 23.6 µM
COc1ccc2c3c1C(=O)C[C@]1(C)Oc4c(cc(-c5c(O)cc(OC)c6c5C[C@H](C)N(C)[C@@H]6C)c5cc(C)cc(OC)c45)[C@]31Oc1cc(OC)c3c(c1-2)C[C@@H](C)N[C@H]3C | 27.9 µM | 4.08 µM | 0.152 µM | 127 | 19.3 µM | 35.6 µM
COc1ccc2c3c1C(=O)C[C@]31c3cc(-c4c(O)cc(OC)c5c4C[C@@H](C)N[C@@H]5C)c4cc(C)cc(OC)c4c3O[C@]1(C)Oc1cc(OC)c3c(c1-2)C[C@@H](C)N(C)[C@@H]3C | > 100 µM | 0.292 µM | 0.071 µM | 272 | 19.3 µM | 17.3 µM
O=C(Cn1ccnc1[N+](=O)[O-])NCc1ccccc1 [BENZNIDAZOLE] |  |  |  |  |  | 2.77 µM
CCCCCCCCCCCCCCCCOP(=O)([O-])OCC[N+](C)(C)C [MILTEFOSINE] | 0.39 µM |  |  |  |  | 
